Structures are written as SMILES. Where a name gives a salt, the structure may show the parent alone.

For orientation: melting point means the temperature of the solid-liquid transition.

With `Nc1nc(-c2ccc(C(=O)N3CCN(S(=O)(=O)c4ccc5cc(Br)ccc5c4)CC3)cc2)c[nH]1` (as salt: salt) [Example 4, 1-(6-Bromonaphth-2-ylsulphonyl)-4-[4-(2-aminoimidazol-4-yl)benzoyl]piperazine], the melting point fell in the range of 274 to 275 °C.

`Cc1nc(-c2ccc(C(=O)N3CCN(S(=O)(=O)c4ccc5cc(Br)ccc5c4)CC3)cc2)c[nH]1` [Example 3, 1-(6-Bromonaphth-2-ylsulphonyl)-4-[4-(2-methylimidazol-4-yl)benzoyl]piperazine] gave a melting point of 215 to 216 °C.

Source of the values: US6395731B1, “Heterocyclic derivatives which inhibit Factor Xa” (Astrazeneca AB, priority 1998, dated 2002).
